Experimental data: patent US5889002A, “Fused 1,2,4-thiadiazine and fused 1,4-thiazine derivatives, their preparation and use” (Novo Nordisk A/S, priority 1996, dated 1999)

Key:
[1] = system: RIN 5F cell line; test: 86Rb+ efflux from a β-cell line (Rb-efflux in rin 5F cells); assay type: cell-based; settings: 1 h at room temperature, Ringer buffer pH 7.1, four parameter logistic curve, read-out: EC50, inhibition of Rb-efflux
Description: ^86 Rb^+ efflux from a β-cell line
The RIN 5F cell line was grown in RPMI 1640 with Glutamax I, supplemented with 10% fetal calf serum (from GibcoBRL, Scotland, UK) and maintained in an atmosphere of 5% CO2 /95% air at 37° C. The cells were detached with a Trypsin-EDTA solution (from GibcoBRL, Scotland, UK), resuspended in medium, added 1 mCi/ml ^86 Rb^+ and replated into microtiter plates (96 well cluster 3596, sterile, from Costar Corporation,Massachusetts, U.S.A.) at a density of 50000 cells/well in […], and grown 24 hours before use in assay.
The plates were washed 4 times with Ringer buffer (150 mM NaCl, 10 mM Hepes, 3.0 mM KCl, 1.0 mM CaCl2, 20 mM Sucrose, pH 7.1). Eighty μl Ringer buffer and 1 μl control- or test compound dissolved in DMSO was added. After incubation 1 h at room temperature with a lid, 50 μl of the supernatant was transferred to PicoPlates (Packard Instrument Company, Connecticut, U.S.A.) and 100 μl MicroScint40 (Packard Instrument Company, Connecticut, U.S.A.) added. The plates were counted in TopCount (Packard Instrument Company, Connecticut, U.S.A.) for 1 min/well at the ^32 P program. […]

[2] = system: rat aorta rings; test: Relaxation of rat aorta rings; settings: rat thoracic aorta rings, phenylephrine-contracted to 80% of maximum response; cumulative addition; read-out: EC50 (concentration required to evoke a 50% relaxation of the tissue)
Description: The activity of the compounds as potassium channel openers can also be measured as relaxation of rat aortas rings according to the following procedure:
A section of rat thoracic aorta between the aortic arch and the diaphragm was dissected out and mounted as ring preparations as described by Taylor P. D. et al, Brit J. Pharmacol, 111, 42-48 (1994).
After a 45 min. equilibration period under a tension of 2 g, the preparations were contracted to achieve 80% of the maximum response using the required concentration of phenylephrine. When the phenylephrine response reached a plateau, potential vasodilatory agents were added cumulatively to the bath in small volumes using half log molar increments at 2 min intervals. Relaxation was expressed at the percentage of the contracted tension. The potency of a compound was expressed as the concentration required to evoke a 50% relaxation of the tissue.
Relaxation of rat aorta rings

Row | Structure (SMILES) | EC50 [1] [µM] | EC50 [2] [µM]
1 | C[C@H](CO)NC1=NS(=O)(=O)c2sc(Cl)cc2N1 [Compound 16, (R)-6-Chloro-3-(2-hydroxy-1-methylethyl)amino-4H-thieno[3,2-e]-1,2,4-thiadiazine 1,1-dioxide] | 5.9 | 6.1
2 | CC(C)C(C)NC1=NS(=O)(=O)c2sc(Cl)cc2N1 (centres unmarked) [Compound 1, 6-Chloro-3-(1,2-dimethylpropyl)amino-4H-thieno[3,2-e]-1,2,4-thiadiazine 1,1-dioxide] | 2.7 | 1.2
3 | CCNC1=NS(=O)(=O)c2sc(Cl)cc2N1 [Compound 2, 6-Chloro-3-ethylamino-4H-thieno[3,2-e]-1,2,4-thiadiazine 1,1-dioxide] | – | 15
